Where two headings read alike, the source gives them in different places. Non-standard residues stand in square brackets, D forms with d. Residues, ends and D or L forms follow the SMILES beside them. *: point of attachment. 1Nal = N[C@@H](Cc1cccc2ccccc12)C(=O)O; 2Nal = N[C@@H](Cc1ccc2ccccc2c1)C(=O)O; 3Pal = N[C@@H](Cc1cccnc1)C(=O)O; 4Pal = N[C@@H](Cc1ccncc1)C(=O)O; NMeD = CN[C@@H](CC(=O)O)C(=O)O; NMeV = CN[C@H](C(=O)O)C(C)C; Bn = c1ccc(C*)cc1; Sar = CNCC(=O)O
Biological target: Sushi domains (SD1/2) protein
Test: Fluorescence polarization (FP) competition assay with AJAP-1probe, calculated Ki
Type: binding
Conditions: for fold increased affinity compared to Asp207Trp: relative to Asp207Trp mutant of APPWT
Outline: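 Ki values were derived from IC50s (sigmoidal fits, ≥ triplicate), with probe Kd obtained by saturation titration of SD1/2. Peptides displaced a 25 nM TAMRA-labelled probe; polarization read at 530/580 nm in 1% BSA-containing PBS, pH 7.4, room temperature.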

[1] = Table 13, peptides for affinity maturation, read-out: Ki (nM) mean ± SEM
[2] = Table 16, ncAAs incorporated peptides, read-out: Ki (nM) mean ± SEM
[3] = Table 7, Ala-, D-amino acids and N-methylation scans of APPWT, read-out: Ki (nM) mean ± SEM
[4] = Table 10, deep mutational scanning validation variants of APPWT, read-out: Ki (nM) mean ± SEM
[5] = purified peptides, read-out: Ki

SMILES: CC(=O)N[C@@H](CCC(=O)O)C(=O)N[C@@H](CC(=O)O)C(=O)N[C@@H](CC(=O)O)C(=O)N[C@@H](CO)C(=O)N[C@@H](CC(=O)O)C(=O)N[C@H](C(=O)N[C@@H](Cc1c[nH]c2ccccc12)C(=O)N[C@@H](Cc1c[nH]c2ccccc12)C(=O)N[C@@H](Cc1ccc(O)cc1)C(=O)N(C)CC(=O)N[C@H](C(=O)NCC(=O)N[C@@H](CC(=O)O)C(=O)N[C@@H](CCC(=O)O)C(=O)N[C@@H](CC(=O)O)C(N)=O)[C@@H](C)O)C(C)C (Ac-EDDSDVWWY[Sar]TGDED-NH2)
- Ki [1]: 142 ± 3 nM

SMILES: CC(=O)N[C@@H](CCC(=O)O)C(=O)N[C@@H](CC(=O)O)C(=O)N[C@@H](CC(=O)O)C(=O)N[C@@H](CO)C(=O)N[C@@H](CC(=O)O)C(=O)N[C@H](C(=O)N[C@@H](Cc1c[nH]c2ccccc12)C(=O)N[C@@H](Cc1c[nH]c2ccccc12)C(=O)N[C@@H](Cc1cccc2ccccc12)C(=O)NCC(=O)N[C@@H](C)C(=O)N[C@@H](CC(=O)O)C(=O)N[C@H](C(=O)N[C@@H](CC(=O)O)C(N)=O)[C@@H](C)O)C(C)C (Ac-EDDSDVWW[1Nal]GADTD-NH2)
- Ki [2]: 114 ± 1 nM

SMILES: CC(=O)N[C@@H](CCC(=O)O)C(=O)N[C@@H](CC(=O)O)C(=O)N[C@@H](CC(=O)O)C(=O)N[C@@H](CO)C(=O)N[C@@H](CC(=O)O)C(=O)N[C@H](C(=O)N[C@@H](Cc1c[nH]c2ccccc12)C(=O)N[C@@H](Cc1c[nH]c2ccccc12)C(=O)N[C@@H](Cc1ccc2ccccc2c1)C(=O)NCC(=O)N[C@@H](C)C(=O)N[C@@H](CC(=O)O)C(=O)N[C@H](C(=O)N[C@@H](CC(=O)O)C(N)=O)[C@@H](C)O)C(C)C (Ac-EDDSDVWW[2Nal]GADTD-NH2)
- Ki [2]: 75 ± 1 nM

SMILES: CC(=O)N[C@@H](CCC(=O)O)C(=O)N[C@@H](CC(=O)O)C(=O)N[C@@H](CC(=O)O)C(=O)N[C@@H](CO)C(=O)N[C@@H](CC(=O)O)C(=O)N[C@H](C(=O)N[C@@H](Cc1c[nH]c2ccccc12)C(=O)N[C@@H](Cc1c[nH]c2ccccc12)C(=O)N(C)CC(=O)NCC(=O)N[C@@H](C)C(=O)N[C@@H](CC(=O)O)C(=O)N[C@H](C(=O)N[C@@H](CC(=O)O)C(N)=O)[C@@H](C)O)C(C)C (Ac-EDDSDVWW[Sar]GADTD-NH2)
- Ki [3]: 18900 ± 554 nM

SMILES: CC(=O)N[C@@H](CCC(=O)O)C(=O)N[C@@H](CC(=O)O)C(=O)N[C@@H](CC(=O)O)C(=O)N[C@@H](CO)C(=O)N[C@@H](CC(=O)O)C(=O)N[C@H](C(=O)N[C@@H](Cc1ccc(O)cc1)C(=O)N[C@@H](Cc1c[nH]c2ccccc12)C(=O)NCC(=O)NCC(=O)N[C@@H](C)C(=O)N[C@@H](CC(=O)O)C(=O)N[C@H](C(=O)N[C@@H](CC(=O)O)C(N)=O)[C@@H](C)O)C(C)C (Ac-EDDSDVYWGGADTD-NH2)
- Ki [4]: 3600 ± 49 nM

SMILES: CC(=O)N[C@@H](CCC(=O)O)C(=O)N[C@@H](CC(=O)O)C(=O)N[C@@H](CC(=O)O)C(=O)N[C@@H](CO)C(=O)N[C@@H](CC(=O)O)C(=O)N(C)[C@H](C(=O)N[C@@H](Cc1c[nH]c2ccccc12)C(=O)N[C@@H](Cc1c[nH]c2ccccc12)C(=O)NCC(=O)NCC(=O)N[C@@H](C)C(=O)N[C@@H](CC(=O)O)C(=O)N[C@H](C(=O)N[C@@H](CC(=O)O)C(N)=O)[C@@H](C)O)C(C)C (Ac-EDDSD[NMeV]WWGGADTD-NH2)
- Ki [3]: 12300 ± 375 nM

SMILES: CC(=O)N[C@@H](CCC(=O)O)C(=O)N[C@@H](CC(=O)O)C(=O)N[C@@H](CC(=O)O)C(=O)N[C@@H](CO)C(=O)N[C@@H](Cc1ccccc1)C(=O)N[C@H](C(=O)N[C@@H](Cc1c[nH]c2ccccc12)C(=O)N[C@@H](Cc1c[nH]c2ccccc12)C(=O)NCC(=O)NCC(=O)N[C@@H](C)C(=O)N[C@@H](CC(=O)O)C(=O)N[C@H](C(=O)N[C@@H](CC(=O)O)C(N)=O)[C@@H](C)O)C(C)C (Ac-EDDSFVWWGGADTD-NH2)
- Ki [4]: 142 ± 6 nM

SMILES: CC[C@H](C)[C@H](NC(=O)[C@H](CO)NC(=O)[C@H](CC(=O)O)NC(=O)[C@H](CC(=O)O)NC(=O)[C@H](CCC(=O)O)NC(C)=O)C(=O)N[C@H](C(=O)N[C@@H](Cc1c[nH]c2ccccc12)C(=O)N[C@@H](Cc1c[nH]c2ccccc12)C(=O)NCC(=O)NCC(=O)N[C@@H](C)C(=O)N[C@@H](CC(=O)O)C(=O)N[C@H](C(=O)N[C@@H](CC(=O)O)C(N)=O)[C@@H](C)O)C(C)C (Ac-EDDSIVWWGGADTD-NH2)
- Ki [4]: 243 ± 3 nM

SMILES: CC(=O)N[C@@H](CCC(=O)O)C(=O)N[C@@H](CC(=O)O)C(=O)N[C@@H](CC(=O)O)C(=O)N[C@@H](CO)C(=O)N[C@@H](Cc1c[nH]c2ccccc12)C(=O)N[C@H](C(=O)N[C@@H](Cc1c[nH]c2ccccc12)C(=O)N[C@@H](Cc1c[nH]c2ccccc12)C(=O)NCC(=O)N(C)CC(=O)N[C@@H](C)C(=O)N[C@@H](CC(=O)O)C(=O)N[C@H](C(=O)N[C@@H](CC(=O)O)C(N)=O)[C@@H](C)O)C(C)C (Ac-EDDSWVWWG[Sar]ADTD-NH2)
- Ki [1]: 36 ± 1 nM

SMILES: CC(=O)N[C@@H](CCC(=O)O)C(=O)N[C@@H](CC(=O)O)C(=O)N[C@@H](CC(=O)O)C(=O)N[C@@H](CO)C(=O)N[C@@H](Cc1ccc(OCc2ccccc2)cc1)C(=O)N[C@H](C(=O)N[C@@H](Cc1c[nH]c2ccccc12)C(=O)N[C@@H](Cc1c[nH]c2ccccc12)C(=O)NCC(=O)NCC(=O)N[C@@H](C)C(=O)N[C@@H](CC(=O)O)C(=O)N[C@H](C(=O)N[C@@H](CC(=O)O)C(N)=O)[C@@H](C)O)C(C)C (Ac-EDDSY(Bn)VWWGGADTD-NH2)
- Ki [2]: 28 ± 1 nM
- Ki [5]: 27.1 nM
- fold increased affinity compared to Asp207Trp: 4 fold

SMILES: CCOc1ccc(C[C@H](NC(=O)[C@H](CO)NC(=O)[C@H](CC(=O)O)NC(=O)[C@H](CC(=O)O)NC(=O)[C@H](CCC(=O)O)NC(C)=O)C(=O)N[C@H](C(=O)N[C@@H](Cc2c[nH]c3ccccc23)C(=O)N[C@@H](Cc2c[nH]c3ccccc23)C(=O)NCC(=O)NCC(=O)N[C@@H](C)C(=O)N[C@@H](CC(=O)O)C(=O)N[C@H](C(=O)N[C@@H](CC(=O)O)C(N)=O)[C@@H](C)O)C(C)C)cc1 (Ac-EDDSY(Et)VWWGGADTD-NH2)
- Ki [2]: 46 ± 2 nM
- Ki [5]: 46.3 nM
- fold increased affinity compared to Asp207Trp: 2 fold

SMILES: COc1ccc(C[C@H](NC(=O)[C@H](CO)NC(=O)[C@H](CC(=O)O)NC(=O)[C@H](CC(=O)O)NC(=O)[C@H](CCC(=O)O)NC(C)=O)C(=O)N[C@H](C(=O)N[C@@H](Cc2c[nH]c3ccccc23)C(=O)N[C@@H](Cc2c[nH]c3ccccc23)C(=O)NCC(=O)NCC(=O)N[C@@H](C)C(=O)N[C@@H](CC(=O)O)C(=O)N[C@H](C(=O)N[C@@H](CC(=O)O)C(N)=O)[C@@H](C)O)C(C)C)cc1 (Ac-EDDSY(Me)VWWGGADTD-NH2)
- Ki [2]: 101 ± 4 nM

SMILES: CC(=O)N[C@@H](CCC(=O)O)C(=O)N[C@@H](CC(=O)O)C(=O)N[C@@H](CC(=O)O)C(=O)N[C@@H](CO)C(=O)N[C@@H](Cc1ccc(O)cc1)C(=O)N[C@H](C(=O)N[C@@H](Cc1c[nH]c2ccccc12)C(=O)N[C@@H](Cc1c[nH]c2ccccc12)C(=O)NCC(=O)NCC(=O)N[C@@H](C)C(=O)N[C@@H](CC(=O)O)C(=O)N[C@H](C(=O)N[C@@H](CC(=O)O)C(N)=O)[C@@H](C)O)C(C)C (Ac-EDDSYVWWGGADTD-NH2)
- Ki [4]: 191 ± 10 nM

SMILES: CC(=O)N[C@@H](CCC(=O)O)C(=O)N[C@@H](CC(=O)O)C(=O)N[C@@H](CC(=O)O)C(=O)N[C@@H](CO)C(=O)N[C@@H](Cc1cccc2ccccc12)C(=O)N[C@H](C(=O)N[C@@H](Cc1c[nH]c2ccccc12)C(=O)N[C@@H](Cc1c[nH]c2ccccc12)C(=O)NCC(=O)NCC(=O)N[C@@H](C)C(=O)N[C@@H](CC(=O)O)C(=O)N[C@H](C(=O)N[C@@H](CC(=O)O)C(N)=O)[C@@H](C)O)C(C)C (Ac-EDDS[1Nal]VWWGGADTD-NH2)
- Ki [2]: 69 ± 3 nM

SMILES: CC(=O)N[C@@H](CCC(=O)O)C(=O)N[C@@H](CC(=O)O)C(=O)N[C@@H](CC(=O)O)C(=O)N[C@@H](CO)C(=O)N[C@@H](Cc1ccc2ccccc2c1)C(=O)N[C@H](C(=O)N[C@@H](Cc1c[nH]c2ccccc12)C(=O)N[C@@H](Cc1c[nH]c2ccccc12)C(=O)NCC(=O)NCC(=O)N[C@@H](C)C(=O)N[C@@H](CC(=O)O)C(=O)N[C@H](C(=O)N[C@@H](CC(=O)O)C(N)=O)[C@@H](C)O)C(C)C (Ac-EDDS[2Nal]VWWGGADTD-NH2)
- Ki [5]: 43 nM
- fold increased affinity compared to Asp207Trp: 2 fold

SMILES: CC(=O)N[C@@H](CCC(=O)O)C(=O)N[C@@H](CC(=O)O)C(=O)N[C@@H](CC(=O)O)C(=O)N[C@@H](CO)C(=O)N[C@@H](Cc1cccnc1)C(=O)N[C@H](C(=O)N[C@@H](Cc1c[nH]c2ccccc12)C(=O)N[C@@H](Cc1c[nH]c2ccccc12)C(=O)NCC(=O)NCC(=O)N[C@@H](C)C(=O)N[C@@H](CC(=O)O)C(=O)N[C@H](C(=O)N[C@@H](CC(=O)O)C(N)=O)[C@@H](C)O)C(C)C (Ac-EDDS[3Pal]VWWGGADTD-NH2)
- Ki [2]: 373 ± 7 nM

SMILES: CC(=O)N[C@@H](CCC(=O)O)C(=O)N[C@@H](CC(=O)O)C(=O)N[C@@H](CC(=O)O)C(=O)N[C@@H](CO)C(=O)N[C@@H](Cc1ccncc1)C(=O)N[C@H](C(=O)N[C@@H](Cc1c[nH]c2ccccc12)C(=O)N[C@@H](Cc1c[nH]c2ccccc12)C(=O)NCC(=O)NCC(=O)N[C@@H](C)C(=O)N[C@@H](CC(=O)O)C(=O)N[C@H](C(=O)N[C@@H](CC(=O)O)C(N)=O)[C@@H](C)O)C(C)C (Ac-EDDS[4Pal]VWWGGADTD-NH2)
- Ki [2]: 424 ± 13 nM

SMILES: CC(=O)N[C@@H](CCC(=O)O)C(=O)N[C@@H](CC(=O)O)C(=O)N[C@@H](CC(=O)O)C(=O)N[C@@H](CO)C(=O)N(C)[C@@H](CC(=O)O)C(=O)N[C@H](C(=O)N[C@@H](Cc1c[nH]c2ccccc12)C(=O)N[C@@H](Cc1c[nH]c2ccccc12)C(=O)NCC(=O)NCC(=O)N[C@@H](C)C(=O)N[C@@H](CC(=O)O)C(=O)N[C@H](C(=O)N[C@@H](CC(=O)O)C(N)=O)[C@@H](C)O)C(C)C (Ac-EDDS[NMeD]VWWGGADTD-NH2)
- Ki [3]: 3760 ± 64 nM

SMILES: CC(=O)N[C@@H](CCC(=O)O)C(=O)N[C@@H](CC(=O)O)C(=O)N[C@@H](CC(=O)O)C(=O)N[C@@H](Cc1c[nH]c2ccccc12)C(=O)N[C@@H](CC(=O)O)C(=O)N[C@H](C(=O)N[C@@H](Cc1c[nH]c2ccccc12)C(=O)N[C@@H](Cc1c[nH]c2ccccc12)C(=O)NCC(=O)NCC(=O)N[C@@H](C)C(=O)N[C@@H](CC(=O)O)C(=O)N[C@H](C(=O)N[C@@H](CC(=O)O)C(N)=O)[C@@H](C)O)C(C)C (Ac-EDDWDVWWGGADTD-NH2)
- Ki [4]: 257 ± 4 nM
